Test results reported in patent US7445892B2, “Method of testing anticancer agent-sensitivity of tumor cells” (Eisai Co., Ltd., priority 2000, dated 2008).

Tests used:
Format in all cases: cell-based, human
LX-1 = assay: Gene expression analysis by quantitative PCR; conditions: susceptible strain LX-1, 8 μM, 0-12 hours, FIG. 3
Protocol: (§1) Similarly, E7070 was added to the media of an E7070-susceptible strain LX-1 and an E7070-resistant strain LX-1-E2 at a concentration of 8 μM and the cells were cultured. Cells were recovered after 0, 3, 6 and 12 hours. Total RNA was extracted from these cells and subjected to the subsequent analyses. LX-1 (Cancer Chemotherapy Center, Japan Foundation for Cancer Research, Tokyo, Japan) was a cell strain derived from human parvicellular lung cancer, and LX-1-E2 is an E7070-resistant substrain obtained by culturing this LX-1 in the presence of E7070 with gradually increasing the E7070 concentration. In order to confirm that variations in gene expression obtained in Example 2 reflected the susceptibility of a tumor cell to E7070, changes of gene expression in E7070-susceptible cells and E7070-resistant cells were examined by quantitative PCR using RNA shown in Example 1, SYBR Green and ABI Prism 7700 Sequence Detection System (Perkin-Elmer Applied Biosystems). […] The mRNA level in each specimen was quantified by measuring fluorescence intensity. In comparison of two or more specimens, quantitative values were corrected based on the mRNA level of GAPDH in each specimen. The relationships between the drug treatment time and each mRNA level are shown in FIGS. 2 to 5, where the quantified value at 0 hour after the drug treatment was used as a control (100%).

LX-1-E2 = assay: Gene expression analysis by quantitative PCR; conditions: resistant strain LX-1-E2, 8 μM, 0-12 hours, FIG. 5
Protocol: as §1

C9-C4 = assay: Gene expression analysis using GeneChip in E7070-resistant strain C9-C4; conditions: resistant strain C9-C4, 8 μM, 12 hours
Protocol: The fragmented cRNA was hybridized with GeneChip Hu6800 (Affymetrix) in 100 mM MES, 1 M sodium salt, 20 mM EDTA and 0.01% Tween 20 at 45° C. for 16 hours. After the hybridization, the GeneChip was washed and stained according to the protocol EukGE-WS2 attached to Affymetrix Fluidics Station. For the staining, streptavidin-phycoerythrin and biotinylated goat anti-streptavidin antibody were used. The stained GeneChip was scanned by using HP Argon Ion Laser Confocal Scanner (Hewlett Packard) to measure its fluorescence intensity. The fluorescence was measured at 570 nm by using an excitation light at 488 nm. The quantitative data analyses were all conducted by using GeneChip Software (Affymetrix). To quantify RNA, an average of “differences [(Perfect match hybridization signal)−(Mismatch signal)]” was obtained for each probe family. […] Two kinds of E7070-resistant strains (C9-C1 and another resistant strain (C9-C4) obtained in the same method as C9-C1) were treated with 8 μM of E7070 for 12 hours in the same manner as described above, and variations of the gene expression were analyzed by using GeneChip for the genes listed in Tables 1 and 2.

MDA-MB-435 = assay: Gene expression analysis using GeneChip in three kinds of cancers; conditions: MDA-MB-435, 8 μM for 12 hours
Protocol: (§2) Gene expression changes in three kinds of cancers of HCT116-C9 (human colon cancer cell strain), MDA-MB-435 (human breast cancer cell strain) and MOLT-4 (human T lymphoblastic leukemia cell strain) caused by E7070 (treated with 8 μM for 12 hours) were examined by using GeneChip in the same manner as in Example 2. A list of the genes of which expression was enhanced 1.8 times or more in common in the three kinds of cancers is shown in Table 3. Further, a list of the genes of which expression was inhibited 1.8 times or more in common in the three kinds of cancers is shown in Table 4. Since the genes of which expression varies (enhanced or reduced) in common in these strains of the three kinds of cancers established from cancer patients with totally different genetic backgrounds are very likely to be more closely associated with the E7070 antitumor action mechanism common to the tumor cells, it is considered that they can be used as valid markers when susceptibility of a tumor cell to E7070 and its related compounds is tested.

MOLT-4 = assay: as above; conditions: MOLT-4, 8 μM for 12 hours
Protocol: as §2

SMILES: NS(=O)(=O)c1ccc(S(=O)(=O)Nc2cccc3c(Cl)c[nH]c23)cc1 [E7070, N-(3-chloro-7-indolyl)-1,4-benzenedisulfonamide]
- mRNA level variation of S80343, U07919, U11791, M95809, U18291, U63743, M61764 (corrected by GAPDH) (LX-1): all the genes except for S80343 showed expression variations
- mRNA level variation of S80343, U07919, U11791, M95809, U18291, U63743, M61764 (corrected by GAPDH) (LX-1-E2): U11791 showed an expression change and M95809 and U18291 showed a slight expression change
- variations of the gene expression for the genes listed in Tables 1 and 2 (C9-C4): no gene that increased or decreased 1.8 times or more was observed
- enhancement of expression of the genes listed in Table 3 (MDA-MB-435): ≥ 1.8 times
- inhibition of expression of the genes listed in Table 4 (MDA-MB-435): ≥ 1.8 times
- enhancement of expression of the genes listed in Table 3 (MOLT-4): ≥ 1.8 times
- inhibition of expression of the genes listed in Table 4 (MOLT-4): ≥ 1.8 times
